Target: T1, CD73 (Homo sapiens, UniProt P21589)
T1 sequence (P21589 27-549): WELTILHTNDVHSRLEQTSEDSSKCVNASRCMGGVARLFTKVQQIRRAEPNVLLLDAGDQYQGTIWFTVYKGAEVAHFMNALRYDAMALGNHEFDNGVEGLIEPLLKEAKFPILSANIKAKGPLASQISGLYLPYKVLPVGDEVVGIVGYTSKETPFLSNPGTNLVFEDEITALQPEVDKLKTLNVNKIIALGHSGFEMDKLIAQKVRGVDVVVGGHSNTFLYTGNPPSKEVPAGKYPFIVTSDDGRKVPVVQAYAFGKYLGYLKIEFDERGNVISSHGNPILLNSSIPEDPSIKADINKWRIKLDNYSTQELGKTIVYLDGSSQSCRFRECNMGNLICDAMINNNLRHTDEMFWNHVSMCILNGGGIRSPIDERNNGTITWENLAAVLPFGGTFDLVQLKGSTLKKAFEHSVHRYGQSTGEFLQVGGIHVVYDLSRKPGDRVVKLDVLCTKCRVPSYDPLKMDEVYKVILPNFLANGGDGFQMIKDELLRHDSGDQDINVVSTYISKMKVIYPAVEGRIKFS
Test: Biochemical Assay: inhibition of CD73 activity (AMP hydrolysis, Malachite Green readout)
Settings: CD73 0.3208 nM, AMP 15 μM, 25 mM Tris-HCl pH 7.4, 10 min reaction at RT; read-out: CD73_Biochem
Method: Example A1: Biochemical Assay
Assay Reaction Conditions
• Assay Volume: 70 μl • Reaction Volume: 50 μl • CD73: 0.3208 nM • AMP: 15 μM • Assay Buffer: 2 5 mM Tris-HCL, pH 7.4, 0.01% Brij-35, 0.01% BSA, 5 mM MgCl2 Assay Procedure:
Made dose titration of testing compounds in assay buffer, 10 points ½ log titrations in duplicates starting at 100 μM.
Added 25 μl of CD73 to each well for a final concentration of 320 pM.
Incubated at RT for 15 min.
Added 25 μl of AMP to each well for a final concentration of 15 μM.
Incubated at RT for 10 min.
Added 10 μl of Malachite Green Reagent A, incubate at RT for 10 min.
Added 10 μl of Malachite Green Reagent B, incubate at RT for 45 min.
Read the Absorbance on Envision plate reader using excitation filter: Cy5 […].
The ability of the compounds disclosed herein to inhibit CD73 activity was quantified and the respective IC50 values were determined. Table 2 provides the biochemical IC50 values of compounds disclosed herein.

- IC50: ≤ 10 nM
SMILES: COCCOCC(COCc1nnn[nH]1)(OC[C@H]1O[C@@H](n2ncc3c(NC4CCCC4)nc(Cl)nc32)[C@H](O)[C@@H]1O)P(=O)(O)O (single isomer, unassigned) [Example 2]
